Measured values from US11596639B2, “Substituted indole Mcl-1 inhibitors” (Vanderbilt University, priority 2016, dated 2023).

Assays:
Mcl-1 = Mcl-1 (Homo sapiens (Human), UniProt Q07820); experiment: TR-FRET binding assay, FITC-Bak peptide and MBP-tagged Mcl-1; conditions: read-out: Ki for Inhibition of Mcl-1 by TR-FRET assay
Protocol: Compounds are diluted in DMSO in a 16-point, semilog serial dilution scheme. […] The plate was mixed and incubated for 3 hours at room temperature. […] TR-FRET signal is plotted and IC50 and Ki values are calculated in the same manner as the fluorescence polarization anisotropy based competition assays.

[1] = test system: H929 human cancer cell lines; experiment: Cellular viability / proliferation (Cell TiterGlo, 72 h); assay type: cell-based; conditions: Homo sapiens, NCI-H929, 72 h, read-out: GI50 on cellular proliferation of H929 human cancer cell lines, H929 cells, 72 h, Cell TiterGlo, 10% FBS
How it was run: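 Compounds were added as 2-fold serial dilutions from 50 μM (final DMSO <1%) to H929 cells seeded 1,000 per well in 10% FBS medium one day earlier.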

Sequence of Mcl-1 (Q07820 172-327): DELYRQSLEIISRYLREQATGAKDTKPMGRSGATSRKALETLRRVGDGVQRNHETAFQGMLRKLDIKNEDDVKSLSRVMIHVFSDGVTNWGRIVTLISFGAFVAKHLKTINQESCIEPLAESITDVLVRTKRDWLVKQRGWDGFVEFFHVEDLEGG

Row | SMILES | Ki (Mcl-1) [µM] | GI50 [1] [µM]
1 | COCCn1cc(N2C[C@@H](C)n3c(c(CCCOc4cc(C)c(Cl)c(C)c4)c4ccc(Cl)c(-c5c(C)nn(C)c5C)c43)C2=O)c2cc(-c3ncn(CC4CC4)n3)ccc21 [Example 589, (R)-7-Chloro-10-(3-(4-chloro-3,5-dimethylphenoxy)propyl)-2-(5-(1-(cyclopropylmethyl)-1H-1,2,4-triazol-3-yl)-1-(2-methoxyethyl)-1H-indol-3-yl)-4-methyl-6-(1,3,5-trimethyl-1H-pyrazol-4-yl)-3,4-dihydropyrazino[1,2-a]indol-1(2H)-one] | 0.0017 | 1.1
2 | COCCn1cc(C(=O)O)c2cccc(N3C[C@@H](C)n4c(c(CCCOc5cc(C)c(Cl)c(C)c5)c5ccc(Cl)c(-c6c(C)nn(C)c6C)c54)C3=O)c21 [Example 512, (R)-7-(7-Chloro-10-(3-(4-chloro-3,5-dimethylphenoxy)propyl)-4-methyl-1-oxo-6-(1,3,5-trimethyl-1H-pyrazol-4-yl)-3,4-dihydropyrazino[1,2-a]indol-2(1H)-yl)-1-(2-methoxyethyl)-1H-indole-3-carboxylic acid] | < 0.0002 | 0.22
3 | COc1ccc(N2C[C@@H](C)n3c(c(CCCOc4cc(C)c(Cl)c(C)c4)c4ccc(Cl)c(-c5c(C)nn(C)c5C)c43)C2=O)c2c1c(C(=O)O)cn2Cc1ccccn1 [Example 617, (R)-7-(7-chloro-10-(3-(4-chloro-3,5-dimethylphenoxy)propyl)-4-methyl-1-oxo-6-(1,3,5-trimethyl-1H-pyrazol-4-yl)-3,4-dihydropyrazino[1,2-a]indol-2(1H)-yl)-4-methoxy-1-(pyridin-2-ylmethyl)-1H-indole-3-carboxylic acid] | < 0.0002 | 0.44
4 | Cc1cc(OCCCc2c3n(c4c(-c5c(C)nn(C)c5C)c(Cl)ccc24)[C@H](C)CN(c2cn(C[C@H]4CCCN4C)c4ccc(C(=O)O)cc24)C3=O)cc(C)c1Cl [Example 694, 3-((R)-7-chloro-10-(3-(4-chloro-3,5-dimethylphenoxy)propyl)-4-methyl-1-oxo-6-(1,3,5-trimethyl-1H-pyrazol-4-yl)-3,4-dihydropyrazino[1,2-a]indol-2(1H)-yl)-1-(((R)-1-methylpyrrolidin-2-yl)methyl)-1H-indole-5-carboxylic acid] | < 0.0002 | 0.32
5 | CC(=O)N1CCN(C(=O)c2cc(N3C[C@@H](C)n4c(c(CCCOc5cc(C)c(Cl)c(C)c5)c5ccc(Cl)c(-c6c(C)nn(C)c6C)c54)C3=O)c3c(c2)cc(C(=O)O)n3C)CC1 [Example 629, (R)-5-(4-acetylpiperazine-1-carbonyl)-7-(7-chloro-10-(3-(4-chloro-3,5-dimethylphenoxy)propyl)-4-methyl-1-oxo-6-(1,3,5-trimethyl-1H-pyrazol-4-yl)-3,4-dihydropyrazino[1,2-a]indol-2(1H)-yl)-1-methyl-1H-indole-2-carboxylic acid] | < 0.0002 | 0.56
6 | Cc1cc(OCCCc2c3n(c4c(-c5c(C)nn(C)c5C)c(Cl)ccc24)[C@H](C)CN(c2cc(OCc4ccccc4)cc4cc(C(=O)O)n(Cc5ccccn5)c24)C3=O)cc(C)c1Cl [Example 588, (R)-5-(benzyloxy)-7-(7-chloro-10-(3-(4-chloro-3,5-dimethylphenoxy)propyl)-4-methyl-1-oxo-6-(1,3,5-trimethyl-1H-pyrazol-4-yl)-3,4-dihydropyrazino[1,2-a]indol-2(1H)-yl)-1-(pyridin-2-ylmethyl)-1H-indole-2-carboxylic acid] | 0.0014 | 1.4
7 | Cc1cc(OCCCc2c3n(c4c(-c5c(C)nn(C)c5C)c(Cl)ccc24)[C@H](C)CN(c2cn(CCN4CCCCC4)c4ccc(C(=O)O)cc24)C3=O)cc(C)c1Cl [Example 543, (R)-3-(7-Chloro-10-(3-(4-chloro-3,5-dimethylphenoxy)propyl)-4-methyl-1-oxo-6-(1,3,5-trimethyl-1H-pyrazol-4-yl)-3,4-dihydropyrazino[1,2-a]indol-2(1H)-yl)-1-(2-(piperidin-1-yl)ethyl)-1H-indole-5-carboxylic acid] | 0.0029 | 1.8
8 | Cc1cc(OCCCc2c3n(c4c(-c5c(C)nn(C)c5C)c(Cl)ccc24)[C@H](C)CN(c2cc(OC4CCN(C)C4)cc4cc(C(=O)O)n(C)c24)C3=O)cc(C)c1Cl (stereo partly drawn) [Example 521, 7-((R)-7-chloro-10-(3-(4-chloro-3,5-dimethylphenoxy)propyl)-4-methyl-1-oxo-6-(1,3,5-trimethyl-1H-pyrazol-4-yl)-3,4-dihydropyrazino[1,2-a]indol-2(1H)-yl)-1-methyl-5-((1-methylpyrrolidin-3-yl)oxy)-1H-indole-2-carboxylic acid] | < 0.0002 | 0.61
9 | Cc1cc(OCCCc2c3n(c4c(-c5c(C)nn(C)c5C)c(Cl)ccc24)[C@H](C)CN(c2cn(CC(=O)N(C)C)c4ccc(-c5ncccn5)cc24)C3=O)cc(C)c1Cl [Example 637, (R)-2-(3-(7-Chloro-10-(3-(4-chloro-3,5-dimethylphenoxy)propyl)-4-methyl-1-oxo-6-(1,3,5-trimethyl-1H-pyrazol-4-yl)-3,4-dihydropyrazino[1,2-a]indol-2(1H)-yl)-5-(pyrimidin-2-yl)-1H-indol-1-yl)-N,N-dimethylacetamide] | 0.0013 | 0.53
10 | COCCOc1cc(N2C[C@@H](C)n3c(c(CCCOc4cc(C)c(Cl)c(C)c4)c4ccc(Cl)c(-c5c(C)nn(C)c5C)c43)C2=O)c2c(c1)c(C(=O)O)cn2CCOC [Example 656, (R)-7-(7-chloro-10-(3-(4-chloro-3,5-dimethylphenoxy)propyl)-4-methyl-1-oxo-6-(1,3,5-trimethyl-1H-pyrazol-4-yl)-3,4-dihydropyrazino[1,2-a]indol-2(1H)-yl)-5-(2-methoxyethoxy)-1-(2-methoxyethyl)-1H-indole-3-carboxylic acid] | < 0.0002 | 0.25
11 | Cc1cc(OCCCc2c3n(c4c(-c5c(C)nn(C)c5C)c(Cl)ccc24)[C@H](C)CN(c2cn(CC(=O)N(C)C)c4ccc(-c5ncn(Cc6ccccn6)n5)cc24)C3=O)cc(C)c1Cl [Example 638, (R)-2-(3-(7-Chloro-10-(3-(4-chloro-3,5-dimethylphenoxy)propyl)-4-methyl-1-oxo-6-(1,3,5-trimethyl-1H-pyrazol-4-yl)-3,4-dihydropyrazino[1,2-a]indol-2(1H)-yl)-5-(1-(pyridin-2-ylmethyl)-1H-1,2,4-triazol-3-yl)-1H-indol-1-yl)-N,N-dimethylacetamide] | 0.0017 | 0.6
12 | COCCn1cc(C(=O)O)c2cc(OCCN3CCN(C)CC3)cc(N3C[C@@H](C)n4c(c(CCCOc5cc(C)c(Cl)c(C)c5)c5ccc(Cl)c(-c6c(C)nn(C)c6C)c54)C3=O)c21 [Example 676, (R)-7-(7-chloro-10-(3-(4-chloro-3,5-dimethylphenoxy)propyl)-4-methyl-1-oxo-6-(1,3,5-trimethyl-1H-pyrazol-4-yl)-3,4-dihydropyrazino[1,2-a]indol-2(1H)-yl)-1-(2-methoxyethyl)-5-(2-(4-methylpiperazin-1-yl)ethoxy)-1H-indole-3-carboxylic acid] | 0.00056 | 1.1
13 | Cc1cc(OCCCc2c3n(c4c(-c5c(C)nn(C)c5C)c(Cl)ccc24)[C@H](C)CN(c2cc(CN4CCN(C)CC4)cc4cc(C(=O)O)n(C)c24)C3=O)cc(C)c1Cl [Example 544, (R)-7-(7-Chloro-10-(3-(4-chloro-3,5-dimethylphenoxy)propyl)-4-methyl-1-oxo-6-(1,3,5-trimethyl-1H-pyrazol-4-yl)-3,4-dihydropyrazino[1,2-a]indol-2(1H)-yl)-1-methyl-5-((4-methylpiperazin-1-yl)methyl)-1H-indole-2-carboxylic acid] | < 0.0002 | 0.32
14 | Cc1nn(C)c(C)c1-c1c(Cl)ccc2c(CCCOc3cccc4ccccc34)c3n(c12)[C@H](C)CN(c1cn(C)c2ccc(C(=O)O)cc12)C3=O [Example 545, (R)-3-(7-Chloro-4-methyl-10-(3-(naphthalen-1-yloxy)propyl)-1-oxo-6-(1,3,5-trimethyl-1H-pyrazol-4-yl)-3,4-dihydropyrazino[1,2-a]indol-2(1H)-yl)-1-methyl-1H-indole-5-carboxylic acid] | 0.00039 | 0.56
15 | Cc1nnn(-c2ccc3c(n2)c(N2C[C@@H](C)n4c(c(CCCOc5cc(C)c(Cl)c(C)c5)c5ccc(Cl)c(-c6c(C)nn(C)c6C)c54)C2=O)cn3C)n1 [Example 684, (R)-7-Chloro-10-(3-(4-chloro-3,5-dimethylphenoxy)propyl)-4-methyl-2-(1-methyl-5-(5-methyl-2H-tetrazol-2-yl)-1H-pyrrolo[3,2-b]pyridin-3-yl)-6-(1,3,5-trimethyl-1H-pyrazol-4-yl)-3,4-dihydropyrazino[1,2-a]indol-1(2H)-one] | 0.0006 | 0.52
16 | COCCOCc1cccn2nc(-c3ccc4c(c3)c(N3C[C@@H](C)n5c(c(CCCOc6cc(C)c(Cl)c(C)c6)c6ccc(Cl)c(-c7c(C)nn(C)c7C)c65)C3=O)cn4C)nc12 [Example 699, (R)-7-Chloro-10-(3-(4-chloro-3,5-dimethylphenoxy)propyl)-2-(5-(8-((2-methoxyethoxy)methyl)-[1,2,4]triazolo[1,5-a]pyridin-2-yl)-1-methyl-1H-indol-3-yl)-4-methyl-6-(1,3,5-trimethyl-1H-pyrazol-4-yl)-3,4-dihydropyrazino[1,2-a]indol-1(2H)-one] | 0.0012 | 0.35
17 | C=C(C)c1ccnc(Cn2c(C(=O)O)cc3cc(C)cc(N4C[C@@H](C)n5c(c(CCCOc6cc(C)c(Cl)c(C)c6)c6ccc(Cl)c(-c7c(C)nn(C)c7C)c65)C4=O)c32)c1 [Example 641, (R)-7-(7-chloro-10-(3-(4-chloro-3,5-dimethylphenoxy)propyl)-4-methyl-1-oxo-6-(1,3,5-trimethyl-1H-pyrazol-4-yl)-3,4-dihydropyrazino[1,2-a]indol-2(1H)-yl)-5-methyl-1-((4-(prop-1-en-2-yl)pyridin-2-yl)methyl)-1H-indole-2-carboxylic acid] | < 0.0002 | 0.35
